What was measured:
[1] = tested on: CDK8 (TCF/LEF luciferase reporter in HCT116 cells); experiment: Cell based TCF/LEF reporter assay (HCT116+TCF/LEF luciferase); conditions: Homo sapiens, HCT-116, 24 h
How it was run: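 Luciferase readout was corrected for viability (CellTiter-Fluor) and scaled between DMSO high and 10 uM CCT251545 low controls, giving IC50 by nonlinear regression. Compounds, serially diluted, were incubated 24 h at 37 °C on HCT116 clones stably expressing a TCF/LEF-driven luciferase reporter.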

[2] = tested on: CDK8 (phosphorylation of STAT1 at serine 727 in A549 cells); experiment: Cell based Phospho-STAT1 assay (IFNγ-stimulated A549 cells, AlphaLISA); conditions: Homo sapiens, A549, A549 cells, phospho-STAT1 after IFNγ stimulation
How it was run: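 A549 cells given serial compound dilutions for 1 h at 37 °C, then stimulated with IFNγ at 10 ng/mL final for 30 min. Lysate STAT1 Ser727 phosphorylation measured by AlphaLISA; % inhibition vs stimulated/unstimulated DMSO controls, IC50 by nonlinear regression.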

Structure (SMILES): N#CC1CCC(c2cccn3ncc(-c4ccc(NCCN5CCOCC5)nc4)c23)CC1 (centres unmarked) [Compound P-0138, 4-(3-(6-((2-morpholinoethyl)amino)pyridin-3-yl)pyrazolo[1,5-a]pyridin-4-yl)cyclohexane-1-carbonitrile]
- IC50 [1]: 0.1 to 100 nM
- IC50 [2]: 0.1 to 100 nM

Structure (SMILES): N#CCCCn1cc(-c2ccc(-c3cnn4ccnc(C5=CCC(C#N)CC5)c34)cc2)cn1 (centres unmarked) [Compound P-0009, 4-(3-(4-(1-(3-cyanopropyl)-1H-pyrazol-4-yl)phenyl)pyrazolo[1,5-a]pyrazin-4-yl)cyclohex-3-ene-1-carbonitrile]
- IC50 [1]: 0.1 to 100 nM
- IC50 [2]: 0.1 to 100 nM

Structure (SMILES): NC(=O)C1CC=C(c2cccn3ncc(-c4ccc(-n5ccnn5)cc4)c23)CC1 (centres unmarked) [Compound P-0196, 4-(3-(4-(1H-1,2,3-triazol-1-yl)phenyl)pyrazolo[1,5-a]pyridin-4-yl)cyclohex-3-ene-1-carboxamide]
- IC50 [1]: 100 to 1000 nM
- IC50 [2]: 0.1 to 100 nM

Structure (SMILES): N#CC1CCN(c2cccn3ncc(-c4ccc(OCC5CCCCO5)cc4)c23)CC1 (centres unmarked) [Compound P-0264, 1-(3-(4-((tetrahydro-2H-pyran-2-yl)methoxy)phenyl)pyrazolo[1,5-a]pyridin-4-yl)piperidine-4-carbonitrile]
- IC50 [1]: 0.1 to 100 nM
- IC50 [2]: 0.1 to 100 nM

Structure (SMILES): N#CC1CC=C(c2c(-c3ccc4c(c3)NC(=O)C4)cnc3[nH]ccc23)CC1 (centres unmarked) [Compound P-0208, 4-(5-(2-oxoindolin-6-yl)-1H-pyrrolo[2,3-b]pyridin-4-yl)cyclohex-3-ene-1-carbonitrile]
- IC50 [1]: 0.1 to 100 nM
- IC50 [2]: 0.1 to 100 nM

Structure (SMILES): N#CC1CCC(c2cccn3ncc(-c4ccc(OCC(O)CN5CCCCC5)cc4)c23)CC1 (centres unmarked) [Compound P-0143, 4-(3-(4-(2-hydroxy-3-(piperidin-1-yl)propoxy)phenyl)pyrazolo[1,5-a]pyridin-4-yl)cyclohexane-1-carbonitrile]
- IC50 [1]: 0.1 to 100 nM
- IC50 [2]: 0.1 to 100 nM

Structure (SMILES): N#CC1CC=C(c2nccn3ncc(-c4ccc(OCCCN5CCCCC5)cc4)c23)CC1 (centres unmarked) [Compound P-0086, 4-(3-(4-(3-(piperidin-1-yl)propoxy)phenyl)pyrazolo[1,5-a]pyrazin-4-yl)cyclohex-3-ene-1-carbonitrile]
- IC50 [1]: 100 to 1000 nM
- IC50 [2]: 0.1 to 100 nM

Structure (SMILES): N#CC1CC=C(c2nccn3ncc(-c4ccc(OCCN5CCOCC5)cc4)c23)CC1 (centres unmarked) [Compound P-0085, 4-(3-(4-(2-morpholinoethoxy)phenyl)pyrazolo [1,5-a]pyrazin-4-yl)cyclohex-3-ene-1-carbonitrile]
- IC50 [1]: 0.1 to 100 nM
- IC50 [2]: 0.1 to 100 nM

Structure (SMILES): NC(=O)C1CC=C(c2cccn3ncc(-c4ccc(-n5cccn5)cc4)c23)CC1 (centres unmarked) [Compound P-0197, 4-(3-(4-(1H-pyrazol-1-yl)phenyl)pyrazolo[1,5-a]pyridin-4-yl)cyclohex-3-ene-1-carboxamide]
- IC50 [1]: 100 to 1000 nM
- IC50 [2]: 0.1 to 100 nM

Structure (SMILES): N#CC1CC=C(c2cccn3ncc(-c4cc5ccccc5s4)c23)CC1 (centres unmarked) [Compound P-0121, 4-(3-(benzo[b]thiophen-2-yl)pyrazolo[1,5-a]pyridin-4-yl)cyclohex-3-ene-1-carbonitrile]
- IC50 [1]: 0.1 to 100 nM
- IC50 [2]: 0.1 to 100 nM

Structure (SMILES): N#CC1CCN(c2cccn3ncc(-c4ccc(OCC(O)CN5CCOCC5)cc4)c23)CC1 (centres unmarked) [Compound P-0262, 1-(3-(4-(2-hydroxy-3-morpholino-propoxy)phenyl)pyrazolo[1,5-a]pyridin-4-yl)piperidine-4-carbonitrile]
- IC50 [1]: 0.1 to 100 nM
- IC50 [2]: 0.1 to 100 nM

Structure (SMILES): Cc1ccn2ncc(-c3ccc(-c4cnn(C)c4)cc3)c2c1C1=CCC(C#N)CC1 (centres unmarked) [Compound P-0250, 4-[5-methyl-3-[4-(1-methylpyrazol-4-yl)phenyl]pyrazolo[1,5-a]pyridin-4-yl]cyclohex-3-ene-1-carbonitrile]
- IC50 [1]: 0.1 to 100 nM
- IC50 [2]: 0.1 to 100 nM

Structure (SMILES): CC(C)(O)Cn1cc(-c2ccc(-c3cnc4[nH]ccc4c3C3=CCC(C(N)=O)CC3)cc2F)cn1 (centres unmarked) [Compound P-0134, 4-(5-(3-fluoro-4-(1-(2-hydroxy-2-methylpropyl)-1H-pyrazol-4-yl)phenyl)-1H-pyrrolo[2,3-b]pyridin-4-yl)cyclohex-3-ene-1-carboxamide]
- IC50 [1]: 0.1 to 100 nM
- IC50 [2]: 100 to 1000 nM

Structure (SMILES): N#CC1CC=C(c2nccn3ncc(-c4ccc(-c5cnn(CC(=O)O)c5)c(F)c4)c23)CC1 (centres unmarked) [Compound P-0116, 2-(4-(4-(4-(4-cyanocyclohex-1-en-1-yl)pyrazolo[1,5-a]pyrazin-3-yl)-2-fluorophenyl)-1H-pyrazol-1-yl)acetic acid]
- IC50 [1]: 100 to 1000 nM
- IC50 [2]: 100 to 1000 nM

Structure (SMILES): N#CC1CCN(c2cccn3ncc(-c4ccc(-c5cnn(C(F)F)c5)cc4)c23)CC1 [Compound P-0415, 1-(3-(4-(1-(difluoromethyl)-1H-pyrazol-4-yl)phenyl)pyrazolo[1,5-a]pyridin-4-yl)piperidine-4-carbonitrile]
- IC50 [1]: 0.1 to 100 nM
- IC50 [2]: 0.1 to 100 nM

Structure (SMILES): CN(C)CCn1cc(-c2ccc(-c3cnn4ccnc(C5=CCC(C#N)CC5)c34)cc2)cn1 (centres unmarked) [Compound P-0047, 4-[3-[4-[1-(2-dimethylaminoethyl)pyrazol-4-yl]phenyl]pyrazolo[1,5-a]pyrazin-4-yl]cyclohex-3-ene-1-carbonitrile]
- IC50 [1]: 0.1 to 100 nM
- IC50 [2]: 0.1 to 100 nM

Structure (SMILES): N#CC1CC=C(c2nccn3ncc(-c4ccc(-c5cnn(CCF)c5)cc4)c23)CC1 (centres unmarked) [Compound P-0036, 4-(3-(4-(1-(2-fluoroethyl)-1H-pyrazol-4-yl)phenyl)pyrazolo[1,5-a]pyrazin-4-yl)cyclohex-3-ene-1-carbonitrile]
- IC50 [1]: 0.1 to 100 nM
- IC50 [2]: 0.1 to 100 nM

Structure (SMILES): Cc1cc(-c2cnn3ccnc(C4=CCC(C#N)CC4)c23)ccc1C#N (centres unmarked) [Compound P-0097, 4-(4-(4-cyanocyclohex-1-en-1-yl)pyrazolo[1,5-a]pyrazin-3-yl)-2-methylbenzonitrile]
- IC50 [1]: 100 to 1000 nM
- IC50 [2]: 0.1 to 100 nM

Structure (SMILES): CC(C)(C#Cc1cccn2ncc(-c3ccc(-c4cnn(CS(C)(=O)=O)c4)cc3)c12)C(N)=O [Compound P-0460, 2,2-dimethyl-4-(3-(4-(1-((methylsulfonyl)methyl)-1H-pyrazol-4-yl)phenyl)pyrazolo[1,5-a]pyridin-4-yl)but-3-ynamide]
- IC50 [1]: 0.1 to 100 nM
- IC50 [2]: 0.1 to 100 nM

Structure (SMILES): CC(C)(O)Cn1cc(-c2ccc(-c3cnc4[nH]ccc4c3C3=CCC(C#N)CC3)cc2F)cn1 (centres unmarked) [Compound P-0132, 4-(5-(3-fluoro-4-(1-(2-hydroxy-2-methylpropyl)-1H-pyrazol-4-yl)phenyl)-1H-pyrrolo[2,3-b]pyridin-4-yl)cyclohex-3-ene-1-carbonitrile]
- IC50 [1]: 0.1 to 100 nM
- IC50 [2]: 0.1 to 100 nM

Structure (SMILES): N#CCCn1cc(-c2ccc(-c3cnn4ccnc(C5=CCC(C#N)CC5)c34)cc2F)cn1 (centres unmarked) [Compound P-0030, 4-(3-(4-(1-(2-cyanoethyl)-1H-pyrazol-4-yl)-3-fluorophenyl)pyrazolo[1,5-a]pyrazin-4-yl)cyclohex-3-ene-1-carbonitrile]
- IC50 [1]: 0.1 to 100 nM
- IC50 [2]: 0.1 to 100 nM

Structure (SMILES): N#CC1CCN(c2cccn3ncc(-c4ccc(-n5cccn5)cc4)c23)CC1 [Compound P-0363, 1-(3-(4-(1H-pyrazol-1-yl)phenyl)pyrazolo[1,5-a]pyridin-4-yl)piperidine-4-carbonitrile]
- IC50 [1]: 0.1 to 100 nM
- IC50 [2]: 0.1 to 100 nM

Structure (SMILES): CC(=O)N1CCC(Oc2cccc3ncc(-c4ccc(-c5cnn(C(F)F)c5)cc4)n23)CC1 [Compound P-0304, 1-[4-[3-[4-[1-(difluoromethyl)pyrazol-4-yl]phenyl]imidazo[1,2-a]pyridin-5-yl]oxy-1-piperidyl]ethanone]
- IC50 [1]: 1000 to 10000 nM
- IC50 [2]: 1000 to 10000 nM

Structure (SMILES): Cn1cc(-c2ccc(-c3cnn4cccc(C#CC5(O)CCC5)c34)cc2)cn1 [Compound P-0310, 1-((3-(4-(1-methyl-1H-pyrazol-4-yl)phenyl)pyrazolo[1,5-a]pyridin-4-yl)ethynyl)cyclobutan-1-ol]
- IC50 [1]: 0.1 to 100 nM
- IC50 [2]: 0.1 to 100 nM

Structure (SMILES): Cn1cc(-c2ccc(-c3cnn4cccc(C5=CCC(C#N)CC5)c34)cc2)cn1 (centres unmarked) [Compound P-0452, 4-(3-(4-(1-methyl-1H-pyrazol-4-yl)phenyl)pyrazolo[1,5-a]pyridin-4-yl)cyclohex-3-ene-1-carbonitrile]
- IC50 [1]: 0.1 to 100 nM
- IC50 [2]: 0.1 to 100 nM

Structure (SMILES): N#CCCn1cc(-c2ccc(-c3cnn4ccnc(C5=CCC(C#N)CC5)c34)cc2)cn1 (centres unmarked) [Compound P-0100, 4-(3-(4-(1-(2-cyanoethyl)-1H-pyrazol-4-yl)phenyl)pyrazolo[1,5-a]pyrazin-4-yl)cyclohex-3-ene-1-carbonitrile]
- IC50 [1]: 0.1 to 100 nM
- IC50 [2]: 0.1 to 100 nM

Structure (SMILES): COc1ccc2cc(-c3cnn4cccc(C#CC(C)(C)O)c34)ccc2n1 [Compound P-0282, 4-(3-(2-methoxyquinolin-6-yl)pyrazolo[1,5-a]pyridin-4-yl)-2-methylbut-3-yn-2-ol]
- IC50 [1]: 100 to 1000 nM
- IC50 [2]: 100 to 1000 nM

Structure (SMILES): Cc1ccc2cc(-c3cnn4ccnc(C5=CCC(C(N)=O)CC5)c34)ccc2n1 (centres unmarked) [Compound P-0153, 4-(3-(2-methylquinolin-6-yl)pyrazolo[1,5-a]pyrazin-4-yl)cyclohex-3-ene-1-carboxamide]
- IC50 [1]: 0.1 to 100 nM
- IC50 [2]: 0.1 to 100 nM

Structure (SMILES): Cc1cc(-c2ccc(-c3cnn4cccc(C#CC(C)(C)O)c34)cc2)n[nH]1 [Compound P-0234, 2-methyl-4-(3-(4-(5-methyl-1H-pyrazol-3-yl)phenyl)pyrazolo[1,5-a]pyridin-4-yl)but-3-yl-2-ol]
- IC50 [1]: 0.1 to 100 nM
- IC50 [2]: 100 to 1000 nM

Structure (SMILES): N#CC1CCC(c2cccn3ncc(-c4ccc(-n5cccn5)cc4)c23)CC1 (centres unmarked) [Compound P-0218, 4-(3-(4-(1H-pyrazol-1-yl)phenyl)pyrazolo[1,5-a]pyridin-4-yl)cyclohexane-1-carbonitrile]
- IC50 [1]: 0.1 to 100 nM
- IC50 [2]: 0.1 to 100 nM

Structure (SMILES): N#CC1CC=C(c2nccn3ncc(-c4ccc(OCC(O)CN5CCCCC5)cc4)c23)CC1 (centres unmarked) [Compound P-0084, 4-(3-(4-(2-hydroxy-3-(piperidin-1-yl)propoxy)phenyl)pyrazolo[1,5-a]pyrazin-4-yl)cyclohex-3-ene-1-carbonitrile]
- IC50 [1]: 0.1 to 100 nM
- IC50 [2]: 0.1 to 100 nM
